Laboratory results reported in US20240166639A1, “POTENT AND SELECTIVE COMPOUNDS AS SEROTONIN 1B RECEPTOR MODULATORS” (LEUKOS BIOTECH, S.L., priority 2020, published 2024).
Counter-ions that a name gives are not always drawn.

What was measured:
MonoMac-1 = assay: Cell viability assay, AML cell line MonoMac-1; type: cell-based; details: 48 h treatment, live cells by flow cytometry
Description: (§1) 0.15×10^6 AML cell lines (HL-60 or MonoMac-1) per mL were cultured in completed RPMI medium, supplemented with 10% Fetal bovine serum (FBS). Compounds were added to the medium at the concentration indicated (0.1, 1 and 10 μM), while controls were treated with equivalent concentration of vehicle (DMSO). Primary validation screenings were analyzed after 72 h of treatment, EC50 was determined upon 48 h treatments. Cells were stained with the live-dead discrimination dye 7-aminoactinomycin D (7-AAD) and Hoechst 33342 and acquired in a flow cytometer, with a volumetric counting. Live cells were discriminated based on a discrete FSC-SSC profile, 7-AAD negativity and dim positivity to Hoechst 33342. EC50 was calculated with the Prism GraphPad software.

human 5-HT1B receptor = human 5-HT1B receptor (Homo sapiens (Human), UniProt P28222); assay: Competition binding in human 5-HT1B receptor; details: [3H]-GR125743, Hela-5-HT1B membranes; read-out: h5-HT1B Ki
Description: Serotonin 5-HT1B receptor competition binding experiments were carried out in a polypropylene 96-well plate. In each well was incubated 5 μg of membranes from Hela-5-HT1B cell line prepared in the laboratory (Lot: A001/14-11-2011, protein concentration=3179 μg/ml), 1.5 nM [^3H]-GR125743 ([…], 0.1 mCi/ml, Perkin Elmer NET1172100UC) and compounds studied and standard. Non-specific binding was determined in the presence of GR55562 10 μM (TOCRIS 1054). The reaction mixture (Vt: 250 μl/well) was incubated at 25° C. for 90 min, 200 μL was transfered to GF/C 96-well plate (Millipore, Madrid, Spain) pretreated with 0.5% of PEI and treated with binding buffer (Tris-HCl 50 mM, EDTA 1 mM, MgCl2 10 mM, pH=7.4), after was filtered and washed four times with 250 μl wash buffer (Tris-HCl 50 mM, pH=7.4), before measuring in a microplate beta scintillation counter (Microbeta Trilux, PerkinElmer, Madrid, Spain). […] From the IC50 the Ki is calculated according to the following formula: […]
(§2) Being: • IC50: inhibitory concentration, • D: real concentration of radioligand and • Kd: dissociation constant (affinity of radioligand to the receptor).

human 5-HT2A receptor = human 5-HT2A receptor (Homo sapiens (Human), UniProt P28223); assay: Competition binding in human 5-HT2A receptor; details: [3H]-Ketanserin, CHO-5-HT2A membranes; read-out: h5-HT2A Ki
Description: Serotonin 5-HT2A receptor competition binding experiments were carried out in a polypropilene 96-well plate. In each well was incubated 80 μg of membranes from CHO-5-HT2A cell line prepared in the laboratory (protein concentration=4337 μg/ml), 1 nM [^3H]-Ketanserin (47.3 Ci/mmol, 1 mCi/ml, Perkin Elmer NET791250UC) and compounds studied and standard. Non-specific binding was determined in the presence of Methysergide 1 μM (Sigma M137). The reaction mixture (Vt: 250 μl/well) was incubated at 37° C. for 30 min, 200 μL was transfered to GF/B 96-well plate (Millipore, Madrid, Spain) pretreated with 0.5% of PEI and treated with binding buffer (Tris-HCl 50 mM, pH=7.4), after was filtered and washed six times with 250 μl wash buffer (Tris-HCl 50 mM, pH=6.6), before measuring in a microplate beta scintillation counter (Microbeta Trilux, PerkinElmer, Madrid, Spain).
The raw radioactivity data is adjusted to a logistic regression of 4 parameters using GraphPad Prism software, from the specific junction the value of IC50 is obtained. From the IC50 the Ki is calculated according to the following formula: […]
as §2

HL-60 = assay: Cell viability assay, AML cell line HL-60; type: cell-based; details: 48 h treatment, live cells by flow cytometry
Description: as §1

[1] = tested on: peripheral blood-mononuclear blood cells; assay: Healthy blood cells viability assay; type: cell-based; details: 48 h treatment, read-out: EC50 (uM), cytotoxic capacity on healthy cells
Description: (§3) 0.5×10^6 peripheral blood-mononuclear blood cells per mL were cultured in completed RPM medium, supplemented with 10% FBS. Compounds were added to the medium at 0.5/1/5/10/50 μM, while controls were treated with equivalent concentration of vehicle (DMSO). Upon 48 h treatment, cells were stained with the live-dead discrimination dye 7-AAD and Hoechst 33342, the pan-hernatopoietic surface marker CD45, and acquired in a flow cytometer, with a volumetric counting. Live cells were discriminated based on a discrete FSC-SSC profile, 7-AAD negativity, dim positivity to Hoechst 33342 and CD45 positivity. EC50 was calculated with the Prism GraphPad software.

[2] = Healthy blood cells viability assay; type: cell-based; details: 48 h treatment, healthy peripheral blood mononuclear cells; read-out: EC50 (uM), cytotoxic capacity on healthy cells
Description: as §3

[3] = tested on: human acute myeloid leukemia (AML) cells; details: every 2 days for 14 days, apomorphine 5 mg/kg, methiothepin 0.1 mg/kg, cited from earlier work; for AML burden in bone marrow (BM): vs vehicle

human 5-HT1B receptor, sequence (P28222 whole entry): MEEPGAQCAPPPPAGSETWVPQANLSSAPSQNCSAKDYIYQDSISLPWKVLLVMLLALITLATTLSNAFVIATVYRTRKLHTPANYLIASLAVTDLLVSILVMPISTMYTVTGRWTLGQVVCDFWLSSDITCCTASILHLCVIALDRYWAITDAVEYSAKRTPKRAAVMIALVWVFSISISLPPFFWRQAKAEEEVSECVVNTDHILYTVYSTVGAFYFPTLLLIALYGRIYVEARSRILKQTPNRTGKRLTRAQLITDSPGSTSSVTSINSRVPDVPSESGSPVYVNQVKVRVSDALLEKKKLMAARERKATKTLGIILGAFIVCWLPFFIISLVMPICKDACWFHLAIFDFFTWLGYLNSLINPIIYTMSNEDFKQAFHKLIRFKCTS
human 5-HT2A receptor, sequence (P28223 whole entry): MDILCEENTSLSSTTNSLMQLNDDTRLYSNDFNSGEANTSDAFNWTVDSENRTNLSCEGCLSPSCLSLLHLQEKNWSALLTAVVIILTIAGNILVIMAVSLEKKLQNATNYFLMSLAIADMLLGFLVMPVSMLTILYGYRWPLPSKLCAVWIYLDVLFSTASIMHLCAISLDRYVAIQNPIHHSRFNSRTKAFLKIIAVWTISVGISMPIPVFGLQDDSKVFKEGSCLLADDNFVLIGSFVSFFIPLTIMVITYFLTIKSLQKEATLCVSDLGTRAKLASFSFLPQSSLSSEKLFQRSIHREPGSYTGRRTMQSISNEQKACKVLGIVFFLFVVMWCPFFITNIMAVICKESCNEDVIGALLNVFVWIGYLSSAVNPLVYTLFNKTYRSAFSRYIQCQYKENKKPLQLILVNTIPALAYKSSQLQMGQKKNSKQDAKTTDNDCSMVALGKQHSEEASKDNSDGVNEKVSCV

| Ki (human 5-HT1B receptor) [µM] | Ki (human 5-HT2A receptor) [µM] | EC50 (HL-60; Homo sapiens, HL-60) [µM] | Compound | EC50 (MonoMac-1) [µM] | EC50 (HL-60) [µM] | EC50 [1] [µM] | EC50 (MonoMac-1; Mono-Mac-1) [µM] | EC50 at 48 h [2] [µM] | clonogenic capacity of engrafted AML cells [3] | AML burden in bone marrow (BM) [3] |
| --- | --- | --- | --- | --- | --- | --- | --- | --- | --- | --- |
| 0.0063 | 3.5 | 3.66 | Cc1nc(-c2ccc(-c3ccc(C(=O)Nc4cc(OCCN(C)C)c(C#N)cn4)cc3)c(C3CC3)c2)no1 [Example 21, N-(5-cyano-4-(2-(dimethylamino)ethoxy)pyridin-2-yl)-2′-cyclopropyl-4′-(5-methyl-1,2,4-oxadiazol-3-yl)-[1,1′-biphenyl]-4-carboxamide] | – | – | – | 3.32 | > 50 | – | – |
| – | – | – | CSc1ccc2c(c1)C(N1CCN(C)CC1)Cc1ccccc1S2 (stereo not drawn) [methiothepin] | – | – | – | – | – | impaired | significant reduction |
| 0.0165 | > 10 | – | Cc1nc(-c2ccc(-c3ccc(C(=O)Nc4ncc(C#N)c(OCCN(C)C)n4)cc3)c(Cl)c2)no1 [Example 38, 2′-chloro-N-(5-cyano-4-(2-(dimethylamino)ethoxy)pyrimidin-2-yl)-4′-(5-methyl-1,2,4-oxadiazol-3-yl)-[1,1′-biphenyl]-4-carboxamide] | – | – | – | – | 50 | – | – |
| 0.0079 | 3 | 0.97 | Cc1nc(-c2ccc(-c3ccc(C(=O)Nc4cc(OCCN(C)C)c(C#N)cn4)cc3)c(Cl)c2)no1 [Example 23, 2′-chloro-N-(5-cyano-4-(2-(dimethylamino)ethoxy)pyridin-2-yl)-4′-(5-methyl-1,2,4-oxadiazol-3-yl)-[1,1′-biphenyl]-4-carboxamide] | – | – | – | 0.54 | > 50 | – | – |
| 0.0259 | > 10 | 1.76 | Cc1nc(-c2ccc(-c3ccc(C(=O)Nc4cc(OCCN(C)C)c(C#N)cn4)cn3)c(C3CC3)c2)no1 [Example 45, N-(5-cyano-4-(2-(dimethylamino)ethoxy)pyridin-2-yl)-6-(2-cyclopropyl-4-(5-methyl-1,2,4-oxadiazol-3-yl)phenyl)nicotinamide] | – | – | – | 1.15 | > 50 | – | – |
| 0.0097 | 2.5 | 0.65 | Cc1nc(-c2ccc(-c3ccc(C(=O)Nc4ccc(C#N)c(OCCN(C)C)c4)cn3)c(C3CC3)c2)no1 [Example 7, N-(4-cyano-3-(2-(dimethylamino)ethoxy)phenyl)-6-(2-cyclopropyl-4-(5-methyl-1,2,4-oxadiazol-3-yl)phenyl)nicotinamide] | – | – | – | 0.79 | 50 | – | – |
| – | – | 5.87 | Cc1nc(-c2ccc(-c3ccc(C(=O)Nc4ncc(C#N)c(OCCN(C)C)n4)cc3)c(C3CC3)c2)no1 [Example 36, N-(5-cyano-4-(2-(dimethylamino)ethoxy)pyrimidin-2-yl)-2′-cyclopropyl-4′-(5-methyl-1,2,4-oxadiazol-3-yl)-[1,1′-biphenyl]-4-carboxamide] | – | – | – | 7.37 | 25 | – | – |
| 0.126 | > 10 | – | COc1cc(-c2noc(C)n2)ccc1-c1ccc(C(=O)Nc2cc(OCCN(C)C)c(C#N)cn2)cn1 [Example 49, N-(5-cyano-4-(2-(dimethyiamino)ethoxy)pyridin-2-yl)-6-(2-methoxy-4-(5-methyl-1,2,4-oxadiazol-3-yl)phenyl)nicotinamide] | 4.17 | 1.16 | – | – | – | – | – |
| – | – | 3.45 | Cc1nc(-c2ccc(-c3ccc(C(=O)Nc4cc(OCCN(C)C)c(Br)cn4)cn3)c(C3CC3)c2)no1 [Example 39, N-(5-bromo-4-(2-(dimethylamino)ethoxy)pyridin-2-yl)-6-(2-cyclopropyl-4-(5-methyl-1,2,4-oxadiazol-3-yl)phenyl)nicotinamide] | – | – | – | 2.6 | 50 | – | – |
| 0.0097 | > 10 | 6.63 | Cc1nc(-c2ccc(-c3ccc(C(=O)Nc4cc(OCCN(C)C)c(C#N)cn4)cn3)c(Cl)c2)no1 [Example 47, 6-(2-chloro-4-(5-methyl-1,2,4-oxadiazol-3-yl)phenyl)-N-(5-cyano-4-(2 (dimethylamino)ethoxy)pyridin-2-yl)nicotinamide] | – | – | – | 4.12 | 25 | – | – |
| 1.76 | 0.00692 | 4.88 | CN1CCc2cccc3c2[C@H]1Cc1ccc(O)c(O)c1-3 [Apomorphine, reference compound] | – | – | – | 11.6 | – | impaired | significant reduction |

| Compound | Ki (human 5-HT1B receptor) [µM] | Ki (human 5-HT2A receptor) [µM] | EC50 (HL-60; Homo sapiens, HL-60) [µM] | EC50 (MonoMac-1) [µM] | EC50 (HL-60) [µM] | EC50 [1] [µM] | EC50 (MonoMac-1; Mono-Mac-1) [µM] | EC50 at 48 h [2] [µM] | clonogenic capacity of engrafted AML cells [3] | AML burden in bone marrow (BM) [3] |
| --- | --- | --- | --- | --- | --- | --- | --- | --- | --- | --- |
| COc1ccc(NC(=O)c2ccc(-c3ccc(-c4noc(C)n4)cc3C)cc2)cc1OCCN(C)C [SB41, N-[3-[3-(Dimethylamino)ethoxy]-4-methoxyphenyl]-2′-methyl-4′-(5-methyl-1,2,4-oxadiazol-3-yl)-[1,1′-biphenyl]-4-carboxamide hydrochloride, reference compound] | 0.0006 | 0.143 | – | 2.48 | 7.32 | 12.5 | – | – | – | – |
| COc1cc(-c2noc(C)n2)ccc1-c1ccc(C(=O)Nc2cc(OCCN(C)C)c(Br)cn2)cn1 [Example 43, N-(5-bromo-4-(2-(dimethylamino)ethoxy)pyridin-2-yl)-6-(2-methoxy-4-(5-methyl-1,2,4-oxadiazol-3-yl)phenyl)nicotinamide] | 0.0015 | 2 | 2.52 | – | – | – | 1.9 | – | – | – |
| Cc1nc(-c2ccc(-c3ccc(NC(=O)c4ccc(Br)c(OCCN(C)C)c4)cn3)c(F)c2)no1 [Example 65, 4-bromo-3-(2-(dimethylamino)ethoxy)-N-(6-(2-fluoro-4-(5-methyl-1,2,4-oxadiazol-3-yl)phenyl)pyridin-3-yl)benzamide] | 0.0005 | 1 | 0.93 | – | – | – | 1.33 | – | – | – |
| Cc1nc(-c2ccc(-c3ccc(C(=O)Nc4ccc(C#N)c(OCCN(C)C)n4)cn3)c(C3CC3)c2)no1 [Example 54, N-(5-cyano-6-(2-(dimethylamino)ethoxy)pyridin-2-yl)-6-(2-cyclopropyl-4-(5-methyl-1,2,4-oxadiazol-3-yl)phenyl)nicotinamide] | 0.0483 | > 10 | 1.07 | – | – | – | 1.04 | – | – | – |
